Source: US20180244699A1, “1-HYDROXY-3H-2,1-BENZOXABOROLE DERIVATIVES AND THEIR USE AS MICROBIOCIDES” (Syngenta Participations AG, priority 2015, published 2018)

Tested on: Pythium ultimum
Test: Pythium ultimum / liquid culture (seedling damping off)
Format: cell-based
Details: Globisporangium ultimum, growth inhibition photometrically 2-3 days after application, compared to untreated control
Procedure: 15. Pythium ultimum/Liquid Culture (Seedling Damping Off) Mycelia fragments and oospores of a newly grown liquid culture of the fungus are directly mixed into nutrient broth (PDB potato dextrose broth). After placing a (DMSO) solution of test compound into a microtiter plate (96-well format), the nutrient broth containing the fungal mycelia/spore mixture is added. The test plates are incubated at 24° C. and the inhibition of growth is determined photometrically 2-3 days after application.

Row | SMILES | inhibition of growth at 20 ppm
1 | COc1c(C(=O)NCc2ccccn2)ccc2c1B(O)OC2 [Compound 7, 1-hydroxy-7-methoxy-N-(2-pyridylmethyl)-3H-2,1-benzoxaborole-6-carboxamide] | ≥ 80%
2 | COc1c(C(=O)N(C)C)ccc2c1B(O)OC2 [Compound 11, 1-hydroxy-7-methoxy-N,N-dimethyl-3H-2,1-benzoxaborole-6-carboxamide] | ≥ 80%
3 | CN(C)C(=O)c1ccc2c(c1Cl)B(O)OC2 [Compound 13, 7-chloro-1-hydroxy-N,N-dimethyl-3H-2,1-benzoxaborole-6-carboxamide] | ≥ 80%
4 | CCOC(=O)N1CCC(NC(=O)c2ccc3c(c2OC)B(O)OC3)CC1 [Compound 18, ethyl 4-[(1-hydroxy-7-methoxy-3H-2,1-benzoxaborole-6-carbonyl)amino]piperidine-1-carboxylate] | ≥ 80%
5 | COc1c(C(=O)NC(=O)N(C)C)ccc2c1B(O)OC2 [Compound 21, N-(dimethylcarbamoyl)-1-hydroxy-7-methoxy-3H-2,1-benzoxaborole-6-carboxamide] | ≥ 80%
6 | COc1c(C(=O)Nc2cc(C)cc(C)n2)ccc2c1B(O)OC2 [Compound 22, N-(4,6-dimethyl-2-pyridyl)-1-hydroxy-7-methoxy-3H-2,1-benzoxaborole-6-carboxamide] | ≥ 80%
7 | COC(=O)C1CCN(C(=O)c2ccc3c(c2OC)B(O)OC3)CC1 [Compound 24, methyl 1-(1-hydroxy-7-methoxy-3H-2,1-benzoxaborole-6-carbonyl)piperidine-4-carboxylate] | ≥ 80%
8 | COCCN(C)C(=O)c1ccc2c(c1OC)B(O)OC2 [Compound 27, 1-hydroxy-7-methoxy-N-(2-methoxyethyl)-N-methyl-3H-2,1-benzoxaborole-6-carboxamide] | ≥ 80%
9 | COc1c(C(=O)N(C)c2nc(C)c(S(N)(=O)=O)s2)ccc2c1B(O)OC2 [Compound 28, 1-hydroxy-7-methoxy-N-methyl-N-(4-methyl-5-sulfamoyl-thiazol-2-yl)-3H-2,1-benzoxaborole-6-carboxamide] | ≥ 80%
10 | COc1c(C(=O)N(C)c2ccccn2)ccc2c1B(O)OC2 [Compound 30, 1-hydroxy-7-methoxy-N-methyl-N-(2-pyridyl)-3H-2,1-benzoxaborole-6-carboxamide] | ≥ 80%
11 | COc1c(C(=O)NCC(C)C)ccc2c1B(O)OC2 [Compound 36, 1-hydroxy-N-isobutyl-7-methoxy-3H-2,1-benzoxaborole-6-carboxamide] | ≥ 80%
12 | CCOC(=O)C1(NC(=O)c2ccc3c(c2OC)B(O)OC3)CC1 [Compound 37, ethyl 1-[(1-hydroxy-7-methoxy-3H-2,1-benzoxaborole-6-carbonyl)amino]cyclopropanecarboxylate] | ≥ 80%
13 | COc1c(C(=O)Nc2c(C(C)C)ccnc2C(C)C)ccc2c1B(O)OC2 [Compound 38, N-(2,4-diisopropyl-3-pyridyl)-1-hydroxy-7-methoxy-3H-2,1-benzoxaborole-6-carboxamide] | ≥ 80%
14 | COc1c(C(=O)N(C)c2cc(Cl)cnc2Cl)ccc2c1B(O)OC2 [Compound 39, N-(2,5-dichloro-3-pyridyl)-1-hydroxy-7-methoxy-N-methyl-3H-2,1-benzoxaborole-6-carboxamide] | ≥ 80%
15 | CCSc1nc(NC(=O)c2ccc3c(c2OC)B(O)OC3)nn1C [Compound 40, N-(5-ethylsulfanyl-1-methyl-1,2,4-triazol-3-yl)-1-hydroxy-7-methoxy-3H-2,1-benzoxaborole-6-carboxamide] | ≥ 80%
16 | COc1c(C(=O)Nc2ccnc(C)c2)ccc2c1B(O)OC2 [Compound 42, 1-hydroxy-7-methoxy-N-(2-methyl-4-pyridyl)-3H-2,1-benzoxaborole-6-carboxamide] | ≥ 80%
17 | COc1c(C(=O)Nc2nnc(C)[nH]2)ccc2c1B(O)OC2 [Compound 43, 1-hydroxy-7-methoxy-N-(5-methyl-4H-1,2,4-triazol-3-yl)-3H-2,1-benzoxaborole-6-carboxamide] | ≥ 80%
18 | CCC(NC(=O)c1ccc2c(c1OC)B(O)OC2)C(=O)OC (centres unmarked) [Compound 44, methyl 2-[(1-hydroxy-7-methoxy-3H-2,1-benzoxaborole-6-carbonyl)amino]butanoate] | ≥ 80%
19 | COc1c(C(=O)NC(=S)N(C)Cc2cccnc2)ccc2c1B(O)OC2 [Compound 47, 1-hydroxy-7-methoxy-N-[methyl(3-pyridylmethyl)carbamothioyl]-3H-2,1-benzoxaborole-6-carboxamide] | ≥ 80%
20 | CCN(Cc1cccnc1)C(=O)c1ccc2c(c1OC)B(O)OC2 [Compound 48, N-ethyl-1-hydroxy-7-methoxy-N-(3-pyridylmethyl)-3H-2,1-benzoxaborole-6-carboxamide] | ≥ 80%
21 | COc1c(C(=O)N(C)c2ncn[nH]2)ccc2c1B(O)OC2 [Compound 50, 1-hydroxy-7-methoxy-N-methyl-N-(1H-1,2,4-triazol-5-yl)-3H-2,1-benzoxaborole-6-carboxamide] | ≥ 80%

Row | SMILES | inhibition of growth at 20 ppm
22 | COc1n[nH]c(NC(=O)c2ccc3c(c2OC)B(O)OC3)n1 [Compound 51, 1-hydroxy-7-methoxy-N-(3-methoxy-1H-1,2,4-triazol-5-yl)-3H-2,1-benzoxaborole-6-carboxamide] | ≥ 80%
23 | COc1c(C(=O)NCCOc2ccccc2)ccc2c1B(O)OC2 [Compound 56, 1-hydroxy-7-methoxy-N-(2-phenoxyethyl)-3H-2,1-benzoxaborole-6-carboxamide] | ≥ 80%
24 | COc1c(C(=O)NCc2ccc(Cl)nc2)ccc2c1B(O)OC2 [Compound 59, N-[(6-chloro-3-pyridyl)methyl]-1-hydroxy-7-methoxy-3H-2,1-benzoxaborole-6-carboxamide] | ≥ 80%
25 | COc1c(C(=O)NC(C)(C)C)ccc2c1B(O)OC2 [Compound 60, N-tert-butyl-1-hydroxy-7-methoxy-3H-2,1-benzoxaborole-6-carboxamide] | ≥ 80%
26 | COc1c(C(=O)NCC2CC(F)(F)C2(F)F)ccc2c1B(O)OC2 (centres unmarked) [Compound 62, 1-hydroxy-7-methoxy-N-[(2,2,3,3-tetrafluorocyclobutyl)methyl]-3H-2,1-benzoxaborole-6-carboxamide] | ≥ 80%
27 | COC(=O)c1cc(NC(=O)c2ccc3c(c2OC)B(O)OC3)cn1C [Compound 67, methyl 4-[(1-hydroxy-7-methoxy-3H-2,1-benzoxaborole-6-carbonyl)amino]-1-methyl-pyrrole-2-carboxylate] | ≥ 80%
28 | COc1c(C(=O)NCc2ncc(C(F)(F)F)cc2Cl)ccc2c1B(O)OC2 [Compound 68, N-[[3-chloro-5-(trifluoromethyl)-2-pyridyl]methyl]-1-hydroxy-7-methoxy-3H-2,1-benzoxaborole-6-carboxamide] | ≥ 80%
29 | CCC1COC(CNC(=O)c2ccc3c(c2OC)B(O)OC3)O1 (centres unmarked) [Compound 69, N-[(4-ethyl-1,3-dioxolan-2-yl)methyl]-1-hydroxy-7-methoxy-3H-2,1-benzoxaborole-6-carboxamide] | ≥ 80%
30 | COc1c(C(=O)NCc2ccc(C)o2)ccc2c1B(O)OC2 [Compound 70, 1-hydroxy-7-methoxy-N-[(5-methyl-2-furyl)methyl]-3H-2,1-benzoxaborole-6-carboxamide] | ≥ 80%
31 | COc1c(C(=O)n2nc(N)cc2C)ccc2c1B(O)OC2 [Compound 71, (3-amino-5-methyl-pyrazol-1-yl)-(1-hydroxy-7-methoxy-3H-2,1-benzoxaborol-6-yl)methanone] | ≥ 80%
32 | COc1c(C(=O)N2CCCC2CO)ccc2c1B(O)OC2 (centres unmarked) [Compound 72, (1-hydroxy-7-methoxy-3H-2,1-benzoxaborol-6-yl)-[2-(hydroxymethyl)pyrrolidin-1-yl]methanone] | ≥ 80%
33 | COc1c(C(=O)OCn2cncn2)ccc2c1B(O)OC2 [Compound 73, 1,2,4-triazol-1-ylmethyl 1-hydroxy-7-methoxy-3H-2,1-benzoxaborole-6-carboxylate] | ≥ 80%
34 | COc1c(C(=O)OCC(C)(F)F)ccc2c1B(O)OC2 [Compound 74, 2,2-difluoropropyl 1-hydroxy-7-methoxy-3H-2,1-benzoxaborole-6-carboxylate] | ≥ 80%
35 | COc1c(C(=O)OCC(C)=O)ccc2c1B(O)OC2 [Compound 76, acetonyl 1-hydroxy-7-methoxy-3H-2,1-benzoxaborole-6-carboxylate] | ≥ 80%
36 | COc1cc(COC(=O)c2ccc3c(c2OC)B(O)OC3)nc(OC)n1 [Compound 78, (2,6-dimethoxypyrimidin-4-yl)methyl 1-hydroxy-7-methoxy-3H-2,1-benzoxaborole-6-carboxylate] | ≥ 80%
37 | COc1c(C(=O)OCc2ccncc2)ccc2c1B(O)OC2 [Compound 106, 4-pyridylmethyl 1-hydroxy-7-methoxy-3H-2,1-benzoxaborole-6-carboxylate] | ≥ 80%
38 | COC(=O)C[C@H](OC(=O)c1ccc2c(c1OC)B(O)OC2)C(=O)OC [Compound 108, dimethyl (2S)-2-(1-hydroxy-7-methoxy-3H-2,1-benzoxaborole-6-carbonyl)oxybutanedioate] | ≥ 80%
39 | COc1c(C(=O)OCCN(C)C(=O)OC(C)(C)C)ccc2c1B(O)OC2 [Compound 112, 2-[tert-butoxycarbonyl(methyl)amino]ethyl 1-hydroxy-7-methoxy-3H-2,1-benzoxaborole-6-carboxylate] | ≥ 80%
40 | COc1c(C(=O)OCC2COC(=O)O2)ccc2c1B(O)OC2 (centres unmarked) [Compound 113, (2-oxo-1,3-dioxolan-4-yl)methyl 1-hydroxy-7-methoxy-3H-2,1-benzoxaborole-6-carboxylate] | ≥ 80%
41 | COc1c(C(=O)OC2COCOC2)ccc2c1B(O)OC2 [Compound 122, 1,3-dioxan-5-yl 1-hydroxy-7-methoxy-3H-2,1-benzoxaborole-6-carboxylate] | ≥ 80%
